Laboratory results from patent US20230321253A1, “BIFUNCTIONAL COMPOUNDS AND PHARMACEUTICAL USES THEREOF” (RISEN (SUZHOU) PHARMA TECH CO., LTD., priority 2022, published 2023).

Target: T1, KRAS-G12D protein (Homo sapiens, UniProt P01116, G12D)
T1 construct: host or cells: Aspc-1 cells
Experiment: KRAS-G12D protein degradation study in Aspc-1 cells (western blot)
Type: cell-based
Settings: for inhibition at 0.1 µM / inhibition at 1 µM / inhibition at 0.05 µM: ASPC1, 24 h; for inhibition at 0.1 µM / Rate of protein degradation (KRAS^G12D): Aspc-1 cells treated with 0.1 μM compound; for inhibition at 0.1 µM / inhibition at 1 µM / Rate of protein degradation (KRAS^G12D) / inhibition at 0.05 µM: 24 hours; for inhibition at 0.1 µM / inhibition at 1 µM: read-out: Rate of protein degradation (KRAS^G12D); for inhibition at 1 µM: Aspc-1 cells treated with 1 μM compound; for inhibition at 0.05 µM: Aspc-1 cells treated with 50 nM compound, read-out: Rate of degradation (KRAS^G12D)
Protocol: Aspc-1 (Cobioer, CBP60546) cells in exponential growth phase were inoculated on a 6-well cell culture plate (Corning, 3516) at density of 1E6/well; and cells in the plate were cultured in 37° C. incubator containing 5% carbon dioxide. The next day, test compounds were dissolved in DMSO (Sigma, RNBF5902) for the preparation of a 10 mM concentration stock solution. The stock solution was diluted with complete medium (RPMI-1640 supplemented with 10% fetal bovine serum, 1% penicillin-streptomycin), yielding working solutions of various concentrations. The plate, after the addition of compounds, was placed in a 5% carbon dioxide incubator, and incubated at 37° C. for 24 hours (final DMSO concentration was 0.1%). The plate was then removed from the incubator, and the cells were washed twice with precooled PBS (Gibco, 14190250), followed by addition of 80 μL RIPA lysis buffer (containing protease inhibitor (Invitrogen™, AM2696)) to each well. The adherent cells were scraped off with a cell scraper, and the cell lysate was transferred to a 1.5 mL centrifuge tube followed with a 30-minute incubation on ice. The lysate was then clarified with centrifugation at 14000 rpm for 10 min at 4° C. The supernatant was transferred into a new 1.5 mL centrifuge tube, and protein concentration was measured with BCA protein detection kit (Thermo Fisher, 23225). KRAS-G12D protein level was assessed by western blot.
A mixture of cell lysate (40 μL) and loading buffer (10 μL 5×SDS (Beyotime, P0015L)) was denatured in a water bath at 95° C. for 10 min. The denatured protein sample, at 30 μL/well, was loaded into the corresponding well of a 4-20% Bis-Tris gel (Kingsley, M00656). Protein samples were initially electrophoresed at 80 V for 30 minutes, followed by 120 V for 40 minutes, until the bromophenol blue strip ran to an appropriate position. After electrophoresis, iBlot2 (Life Technologies, IB21001) was used to transfer the separated samples onto PVDF film. The PVDF membrane was washed with double-distilled water and then blocked in TBST (Thermo Scientific, 28360) buffer containing 5% non-fat milk, for 2 hours. Blocked membrane was rinsed with tris-buffered saline tween-20 (Thermo Scientific, 28360, TBST) three times, 10 minutes each. Membrane was then incubated with 1:1000 diluted KRAS primary antibody (CST, cat #14429S) overnight at 4° C. Membrane was rinsed as described previously followed by 1 hour incubation of secondary antibody at room temperature. After washing the film three times with TBST, ECL color developing solution was applied, and image was captured with Biorad Chemi Doc gel imager. The band gray value was quantified (Image Lab), and protein degradation level was calculated according to the following formula:
Level of RAS protein expression=(RAS-compound/GAPDH)/(RAS-DMSO/GAPDH)
Level of degradation (%)=(1−Rate of RAS protein expression)×100
The symbols “−”, “+”, “++”, and “+++” indicate that the degradation level of KRAS^G12D protein induced by the test compounds was 10% or less, 11 to 30%, 31 to 60%, and greater than 60%, respectively.
Half-maximum degradation concentrations (DC50s) of exemplary test compounds were calculated using GraphPad Prism and their values are shown in Table 6. The symbols “++++”, “+++”, “++” and “+” indicate DC50 equal or less than 10 nM, 11-50 nM, 51-100 nM, and 101-200 nM, respectively.

T1 sequence (P01116 1-188 isoform P01116-2 G12D): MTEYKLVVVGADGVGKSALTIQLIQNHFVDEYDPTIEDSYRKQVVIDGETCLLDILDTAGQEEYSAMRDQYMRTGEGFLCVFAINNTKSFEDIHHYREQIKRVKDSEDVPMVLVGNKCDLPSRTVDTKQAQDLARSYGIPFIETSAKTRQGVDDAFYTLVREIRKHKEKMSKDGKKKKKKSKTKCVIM

For `C#Cc1c(F)ccc2cc(O)cc(-c3ncc4c(N5CC6CCC(C5)N6)nc(OCC5CCN(CC(=O)N6CCC(c7ccc8c(C9CCC(=O)NC9=O)nn(C)c8c7)CC6)C5)nc4c3F)c12` (stereo not shown) [Compound 94], which inhibition at 0.1 µM is on record?
The inhibition at 0.1 µM was 31 to 60%.

How did the inhibition at 1 µM turn out when `C#Cc1c(F)ccc2cc(O)cc(-c3ncc4c(N5CC6CCC(C5)N6)nc(OC5CCN(CCOCCOCC(=O)N[C@H](C(=O)N6C[C@H](O)C[C@H]6C(=O)NCc6ccc(-c7scnc7C)cc6)C(C)(C)C)CC5)nc4c3F)c12` [Compound 53] was run?
The inhibition at 1 µM was 11 to 30%.

How did the “Rate of protein degradation (KRAS^G12D)” value turn out when `C#Cc1c(F)ccc2cc(O)cc(-c3ncc4c(N5CC6CCC(C5)N6)nc(OCC5(CN6CCN(C(=O)CN7CCC(c8ccc9c(C%10CCC(=O)NC%10=O)nn(C)c9c8)CC7)CC6)CC5)nc4c3F)c12` (stereo not shown) [Compound 119] was run?
The value was “+ (11 to 30%)”.

`CCc1c(F)ccc2cc(O)cc(-c3ncc4c(N5CC6CCC(C5)N6)nc(OCC56CCCN5[C@@H](COC(=O)NCCCCCCCC(=O)N[C@H](C(=O)N5C[C@H](O)C[C@H]5C(=O)N[C@@H](C)c5ccc(-c7scnc7C)cc5)C(C)(C)C)CC6)nc4c3F)c12` (stereo partly shown) [Compound 68] was tested. Which inhibition at 0.1 µM did it give?
Its inhibition at 0.1 µM is 31 to 60%.

And the inhibition at 1 µM?
The inhibition at 1 µM was greater than 60%.

For `C#Cc1c(F)ccc2cc(O)cc(-c3ncc4c(N5CC6CCC(C5)N6)nc(OCC5(CN6CCN(c7ccc(C(=O)NC8CCC(=O)NC8=O)nc7)CC6)CC5)nc4c3F)c12` (stereo not shown) [Compound 145], which inhibition at 0.05 µM is on record?
The inhibition at 0.05 µM was no more than 10%.

`C#Cc1c(F)ccc2cc(O)cc(-c3ncc4c(N5CC6CCC(C5)N6)nc(OCC5(CN6CC(CN7CCC(c8ccc9c(C%10CCC(=O)NC%10=O)nn(C)c9c8)CC7)C6)CC5)nc4c3F)c12` (stereo not shown) [Compound 144] was tested. Which inhibition at 0.05 µM did it give?
Its inhibition at 0.05 µM is 31 to 60%.

`C#Cc1c(F)ccc2cc(O)cc(-c3ncc4c(N5CC6CCC(C5)N6)nc(OCC5(CN6CCC(N7CCC(c8ccc9c(C%10CCC(=O)NC%10=O)nn(C)c9c8)CC7)CC6)CC5)nc4c3F)c12` (stereo not shown) [Compound 113] was tested. Which inhibition at 0.1 µM did it give?
Its inhibition at 0.1 µM is greater than 60%.

And the DC50 (Aspc-1 cells, read-out: DC50 of test compound-induced KRAS^G12D protein degradation)?
The DC50 was less than 10 nM.

Which inhibition at 0.05 µM does the source give for `C#Cc1c(F)ccc2cc(O)cc(-c3ncc4c(N5CC6CCC(C5)N6)nc(OCC5(CN6CC(CN7CCN(c8ccc(C(=O)NC9CCC(=O)NC9=O)nc8)CC7)C6)CC5)nc4c3F)c12` (stereo not shown) [Compound 134] here?
The inhibition at 0.05 µM was 11 to 30%.

With `C#Cc1c(F)ccc2cc(O)cc(-c3ncc4c(N5CC6CCC(C5)N6)nc(OCCCN5CCN(CC(=O)N6CCN(c7cccc8c7C(=O)N(C7CCC(=O)NC7=O)C8=O)CC6)CC5)nc4c3F)c12` (stereo not shown) [Compound 62] as the compound, how does the inhibition at 0.1 µM read?
The inhibition at 0.1 µM was no more than 10%.

What about the inhibition at 1 µM of the same compound?
The inhibition at 1 µM was no more than 10%.

`C#Cc1c(F)ccc2cc(O)cc(-c3ncc4c(N5CC6CCC(C5)N6)nc(OCC5(CN6CCC(C(=O)N7CCN(c8ccc(NC9CCC(=O)NC9=O)cc8F)CC7)CC6)CC5)nc4c3F)c12` (stereo not shown) [Compound 107] was tested. Which inhibition at 0.1 µM did it give?
Its inhibition at 0.1 µM is 11 to 30%.

`C#Cc1c(F)ccc2cc(O)cc(-c3ncc4c(N5CC6CCC(C5)N6)nc(OCCCN5CCN(CCCCCC(=O)N[C@H](C(=O)N6C[C@H](O)C[C@H]6C(=O)NCc6ccc(-c7scnc7C)cc6)C(C)(C)C)CC5)nc4c3F)c12` [Compound 28] was tested. Which inhibition at 1 µM did it give?
The inhibition at 1 µM was 11 to 30%.

How did the inhibition at 0.1 µM turn out when `C#Cc1c(F)ccc2cc(O)cc(-c3ncc4c(N5CC6CCC(C5)N6)nc(OCCCN5CCN(C(=O)CN6CCN(c7ccc8c(c7)C(=O)N(C7CCC(=O)NC7=O)C8=O)CC6)CC5)nc4c3F)c12` (stereo not shown) [Compound 60] was run?
The inhibition at 0.1 µM was no more than 10%.

And the inhibition at 1 µM?
The inhibition at 1 µM was 11 to 30%.

How did the inhibition at 0.05 µM turn out when `C#Cc1c(F)ccc2cc(O)cc(-c3ncc4c(N5CC6CCC(C5)N6)nc(OCC5(CN6CCC(C7CCN(c8ccc(NC9CCC(=O)NC9=O)cc8F)CC7)CC6)CC5)nc4c3F)c12` (stereo not shown) [Compound 140] was run?
The inhibition at 0.05 µM was 31 to 60%.

How did the “Rate of protein degradation (KRAS^G12D)” value turn out when `C#Cc1c(F)ccc2cc(O)cc(-c3ncc4c(N5CC6CCC(C5)N6)nc(OC5CCN(CC(=O)N6CCC7(CC6)CC(N6CCC(c8ccc9c(C%10CCC(=O)NC%10=O)nn(C)c9c8)CC6)C7)C5)nc4c3F)c12` (stereo not shown) [Compound 101] was run?
Its value is “+ (11 to 30%)”.

Which inhibition at 0.1 µM does the source give for `C#Cc1c(F)ccc2cc(O)cc(-c3ncc4c(N5CC6CCC(C5)N6)nc(OC5CCN(CCCCCCCCCCOc6cc(-c7ncsc7C)ccc6CNC(=O)[C@@H]6C[C@@H](O)CN6C(=O)[C@@H](NC(=O)C6(F)CC6)C(C)(C)C)CC5)nc4c3F)c12` [Compound 77] here?
The inhibition at 0.1 µM was no more than 10%.
